Results taken from ChEMBL document CHEMBL3045734, “Synthesis of Mannich Bases of 2, 6-Disubstituted 2H-pyran-3(6H)-ones and their Miticidal Activity” (1994).

Key:
Type in all cases: functional
Tetranychus urticae [1] = assay: Miticidal activity against Tetranychus urticae (two-spotted spider mite) in kidney beans assessed as mortality under greenhouse at 600 ppm at 25 +/- 2 degC measured after 48 hr of spray
Tetranychus urticae [2] = assay: Miticidal activity against Tetranychus urticae (two-spotted spider mite) in kidney beans assessed as mortality under greenhouse at 300 ppm at 25 +/- 2 degC measured after 48 hr of spray
Tetranychus urticae [3] = assay: Miticidal activity against Tetranychus urticae (two-spotted spider mite) in kidney beans assessed as mortality under greenhouse at 100 ppm at 25 +/- 2 degC measured after 48 hr of spray
Tetranychus urticae [4] = assay: Miticidal activity against Tetranychus urticae (two-spotted spider mite) in kidney beans assessed as mortality under greenhouse at 50 ppm at 25 +/- 2 degC measured after 48 hr of spray
Panonychus citri [5] = assay: Miticidal activity against Panonychus citri in satsuma mandarin assessed as mortality under greenhouse at 300 ppm at 25 +/- 2 degC measured after 48 hr of spray
Tetranychus kanzawai [6] = assay: Miticidal activity against Tetranychus kanzawai in kidney beans assessed as mortality under greenhouse at 300 ppm at 25 +/- 2 degC measured after 48 hr of spray
Tetranychus kanzawai [7] = assay: Miticidal activity against Tetranychus kanzawai in kidney beans assessed as mortality under greenhouse at 100 ppm at 25 +/- 2 degC measured after 48 hr of spray
Tetranychus kanzawai [8] = assay: Miticidal activity against Tetranychus kanzawai in kidney beans assessed as next generation adult mites under greenhouse at 300 ppm at 25 +/- 2 degC measured after 14 days of spray relative to control
Panonychus citri [9] = assay: Miticidal activity against Panonychus citri in satsuma mandr assessed as next generation adult mites under greenhouse at 300 ppm at 25 +/- 2 degC measured after 14 days of spray relative to control
Tetranychus kanzawai [10] = assay: Miticidal activity against Tetranychus kanzawai in kidney beans assessed as mortality under greenhouse at 50 ppm at 25 +/- 2 degC measured after 48 hr of spray
Panonychus citri [11] = assay: Miticidal activity against Panonychus citri in satsuma mandarin assessed as mortality under greenhouse at 100 ppm at 25 +/- 2 degC measured after 48 hr of spray
Tetranychus urticae [12] = assay: Miticidal activity against Tetranychus urticae (two-spotted spider mite) in kidney beans assessed as next generation adult mites under greenhouse at 300 ppm at 25 +/- 2 degC measured after 14 days of spray relative to control
Panonychus citri [13] = assay: Miticidal activity against Panonychus citri in satsuma mandarin assessed as mortality under greenhouse at 50 ppm at 25 +/- 2 degC measured after 48 hr of spray

| Compound | mortality at 600 ppm (Tetranychus urticae [1]) | mortality at 300 ppm (Tetranychus urticae [2]) | mortality at 100 ppm (Tetranychus urticae [3]) | further results |
| --- | --- | --- | --- | --- |
| COC1C=C(CN2CCCCC2C)C(=O)C(C2CCCCC2)O1 (centres undefined) | 80% | 55% |  |  |
| CCCCCCC1OC(OCCC)C=C(CN2CCCCC2)C1=O (centres undefined) |  | 100% | 100% | mortality at 50 ppm (Tetranychus urticae [4]): 70% |
| CCCCCCC1OC(OCCCC)C=C(CN2CCCCC2)C1=O (centres undefined) |  | 100% | 75% | mortality at 50 ppm (Tetranychus urticae [4]): 40% |
| CCCCCCCCCCC1OC(OC)C=C(CN2CCCCC2)C1=O (centres undefined) | 95% | 70% | 20% |  |
| COC1C=C(CN2CCCC(C)C2)C(=O)C(C2CCCCC2)O1 (centres undefined) | 100% | 83% | 65% |  |
| CCCCCCC1OC(OC)C=C(CN2CCCCC2C)C1=O (centres undefined) | 90% | 60% |  |  |
| CCCCCCCCC1OC(OC)C=C(CN2CCCCC2)C1=O (centres undefined) | 100% | 90% | 50% |  |
| CCCCCCC1OC(OCc2ccccc2)C=C(CN2CCCCC2)C1=O (centres undefined) |  | 55% | 40% |  |
| COC1C=C(CN2CCCCC2)C(=O)C(C2CCCCC2)O1 (centres undefined) | 100% | 100% | 68% |  |
| CCCCCCC1OC(OC2CCCCC2)C=C(CN2CCCCC2)C1=O (centres undefined) |  | 100% | 82% | mortality at 50 ppm (Tetranychus urticae [4]): 40% |
| CCCCCCC1OC(OC)C=C(CN2CCCC(C)C2)C1=O (centres undefined) | 100% | 85% | 55% |  |
| COC1C=C(CN2CCCCC2)C(=O)CO1 (centres undefined) | 70% | 10% |  |  |
| CCN(CC)CC1=CC(OC)OC(C2CCCCC2)C1=O (centres undefined) | 60% |  |  |  |
| CCCCCCCCCCCCC1OC(OC)C=C(CN2CCCCC2)C1=O (centres undefined) | 90% | 65% |  |  |
| CCCCCCC1OC(OC)C=C(CN2CCCCC2)C1=O (centres undefined) | 100% | 100% | 77% | mortality at 50 ppm (Tetranychus urticae [4]): 40% |
| CCCCCCC1OC(OC)C=C(CN2CCOCC2)C1=O (centres undefined) | 90% | 65% |  |  |
| CCCCCCC1OC(OC(C)(C)C)C=C(CN2CCCCC2)C1=O (centres undefined) |  | 95% | 75% | mortality at 50 ppm (Tetranychus urticae [4]): 50% |

| Compound | mortality at 600 ppm (Tetranychus urticae [1]) | mortality at 300 ppm (Tetranychus urticae [2]) | mortality at 100 ppm (Tetranychus urticae [3]) | further results |
| --- | --- | --- | --- | --- |
| CCCCCCC1OC(OC)C=C(CN2CCCC2)C1=O (centres undefined) | 70% |  |  |  |
| COC1C=C(CN2CCCC2)C(=O)C(C2CCCCC2)O1 (centres undefined) | 68% |  |  |  |
| CCCC1OC(OC)C=C(CN2CCCCC2)C1=O (centres undefined) | 90% | 20% |  |  |
| CCCCCCC1OC(Oc2ccccc2)C=C(CN2CCCCC2)C1=O (centres undefined) |  | 60% | 20% |  |
| CCCCCCC1OC(OCC(C)C)C=C(CN2CCCCC2)C1=O (centres undefined) |  | 100% | 92% | mortality at 50 ppm (Tetranychus urticae [4]): 75% |
| COC1C=C(CN2CCCCC2)C(=O)C(c2ccccc2)O1 (centres undefined) | 30% |  |  |  |
| CCCCCCC1OC(OC)C=C(CN(CC)CC)C1=O (centres undefined) | 60% |  |  |  |
| CCCCCCC1OC(OC)C=C(CN(CCCC)CCCC)C1=O (centres undefined) | 75% |  |  |  |
| CCCCCCC1OC(OC)C=C(CN2CCC(C)CC2)C1=O (centres undefined) | 100% | 95% | 70% |  |
| COC1C=C(CN2CCOCC2)C(=O)C(C2CCCCC2)O1 (centres undefined) | 90% | 65% |  |  |
| CCCCC1OC(OC)C=C(CN2CCCCC2)C1=O (centres undefined) | 90% | 87% | 10% |  |
| CCCCCC1OC(OC)C=C(CN2CCCCC2)C1=O (centres undefined) | 100% | 95% | 20% |  |
| CCCCN(CCCC)CC1=CC(OC)OC(C2CCCCC2)C1=O (centres undefined) | 70% |  |  |  |
| CCCCCCC1OC(OCC)C=C(CN2CCCCC2)C1=O (centres undefined) |  | 100% | 70% | mortality at 50 ppm (Tetranychus urticae [4]): 40% |
| COC1C=C(CN2CCC(C)CC2)C(=O)C(C2CCCCC2)O1 (centres undefined) | 100% | 85% | 60% |  |
| CCCCCCC1OC(OC(C)C)C=C(CN2CCCCC2)C1=O (centres undefined) |  | 100% | 100% | mortality at 300 ppm (Panonychus citri [5]): 100%; mortality at 300 ppm (Tetranychus kanzawai [6]): 100%; mortality at 100 ppm (Tetranychus kanzawai [7]): 100%; Activity (Tetranychus kanzawai [8]): 90%; Activity (Panonychus citri [9]): 91%; mortality at 50 ppm (Tetranychus kanzawai [10]): 93%; mortality at 100 ppm (Panonychus citri [11]): 100%; mortality at 50 ppm (Tetranychus urticae [4]): 90%; Activity (Tetranychus urticae [12]): 93%; mortality at 50 ppm (Panonychus citri [13]): 88% |
| CCCCCCOC1C=C(CN2CCCCC2)C(=O)C(CCCCCC)O1 (centres undefined) |  | 85% | 70% | mortality at 50 ppm (Tetranychus urticae [4]): 45% |
